Measurements reported in ChEMBL document CHEMBL4229333, “Effects of rigidity on the selectivity of protein kinase inhibitors” (Eur J Med Chem, 2018).

Tests used:
[1] = target: Serine/threonine-protein kinase B-raf (Homo sapiens, UniProt P15056, V600E); assay: Inhibition of full length FLAG-tagged BRAF V600E mutant (unknown origin) expressed in HEK293 cells assessed as decrease in MEK phosphorylation by immunoblotting assay; assay type: cell-based
[2] = target: RAC-beta serine/threonine-protein kinase (Homo sapiens) (UniProt P31751); assay: Inhibition of AKT2 (unknown origin) at 1 uM by mobility shift microfluidics platform based assay relative to control
[3] = target: RAC-gamma serine/threonine-protein kinase (Homo sapiens) (UniProt Q9Y243); assay: Inhibition of AKT3 (unknown origin) at 1 uM by mobility shift microfluidics platform based assay relative to control
[4] = target: Tyrosine-protein kinase receptor UFO (Homo sapiens) (UniProt P30530); assay: Inhibition of AXL (unknown origin) at 1 uM by mobility shift microfluidics platform based assay relative to control
[5] = target: Tyrosine-protein kinase Blk (Homo sapiens) (UniProt P51451); assay: Inhibition of BLK (unknown origin) at 1 uM by mobility shift microfluidics platform based assay relative to control
[6] = target: Dual specificity protein kinase CLK1 (Homo sapiens) (UniProt P49759); assay: Inhibition of CLK1 (unknown origin) at 1 uM by mobility shift microfluidics platform based assay relative to control
[7] = target: RAF proto-oncogene serine/threonine-protein kinase (Homo sapiens) (UniProt P04049); assay: Inhibition of CRAF (unknown origin) at 1 uM by mobility shift microfluidics platform based assay relative to control
[8] = target: Death-associated protein kinase 1 (Homo sapiens) (UniProt P53355); assay: Inhibition of DAPK1 (unknown origin) at 1 uM by mobility shift microfluidics platform based assay relative to control
[9] = target: Dual specificity tyrosine-phosphorylation-regulated kinase 1B (Homo sapiens) (UniProt Q9Y463); assay: Inhibition of DYRK1B (unknown origin) at 1 uM by mobility shift microfluidics platform based assay relative to control
[10] = target: Dual specificity tyrosine-phosphorylation-regulated kinase 2 (Homo sapiens) (UniProt Q92630); assay: Inhibition of DYRK2 (unknown origin) at 1 uM by mobility shift microfluidics platform based assay relative to control
[11] = target: Ephrin type-A receptor 1 (Homo sapiens) (UniProt P21709); assay: Inhibition of EPH-A1 (unknown origin) at 1 uM by mobility shift microfluidics platform based assay relative to control
[12] = target: Ephrin type-B receptor 3 (Homo sapiens) (UniProt P54753); assay: Inhibition of EPH-B3 (unknown origin) at 1 uM by mobility shift microfluidics platform based assay relative to control
[13] = target: Tyrosine-protein kinase Fes/Fps (Homo sapiens) (UniProt P07332); assay: Inhibition of FES (unknown origin) at 1 uM by mobility shift microfluidics platform based assay relative to control
[14] = target: Fibroblast growth factor receptor 2 (Homo sapiens) (UniProt P21802); assay: Inhibition of FGFR2 (unknown origin) at 1 uM by mobility shift microfluidics platform based assay relative to control
[15] = target: Vascular endothelial growth factor receptor 3 (Homo sapiens) (UniProt P35916); assay: Inhibition of FLT4 (unknown origin) at 1 uM by mobility shift microfluidics platform based assay relative to control
[16] = target: Rhodopsin kinase GRK7 (Homo sapiens) (UniProt Q8WTQ7); assay: Inhibition of GRK7 (unknown origin) at 1 uM by mobility shift microfluidics platform based assay relative to control
[17] = target: Glycogen synthase kinase-3 alpha (Homo sapiens) (UniProt P49840); assay: Inhibition of GSK-3-alpha (unknown origin) at 1 uM by mobility shift microfluidics platform based assay relative to control
[18] = target: Insulin-like growth factor 1 receptor (Homo sapiens) (UniProt P08069); assay: Inhibition of IGF1R (unknown origin) at 1 uM by mobility shift microfluidics platform based assay relative to control
[19] = target: Leukocyte tyrosine kinase receptor (Homo sapiens) (UniProt P29376); assay: Inhibition of LTK (unknown origin) at 1 uM by mobility shift microfluidics platform based assay relative to control
[20] = target: MAP kinase-activated protein kinase 2 (Homo sapiens) (UniProt P49137); assay: Inhibition of MAPKAPK2 (unknown origin) at 1 uM by mobility shift microfluidics platform based assay relative to control
[21] = target: MAP/microtubule affinity-regulating kinase 3 (Homo sapiens) (UniProt P27448); assay: Inhibition of MARK3 (unknown origin) at 1 uM by mobility shift microfluidics platform based assay relative to control
[22] = target: Maternal embryonic leucine zipper kinase (Homo sapiens) (UniProt Q14680); assay: Inhibition of MELK (unknown origin) at 1 uM by mobility shift microfluidics platform based assay relative to control
[23] = target: Serine/threonine-protein kinase 3 (Homo sapiens) (UniProt Q13188); assay: Inhibition of MST2 (unknown origin) at 1 uM by mobility shift microfluidics platform based assay relative to control
[24] = target: Ribosomal protein S6 kinase beta-2 (Homo sapiens) (UniProt Q9UBS0); assay: Inhibition of P70S6K2 (unknown origin) at 1 uM by mobility shift microfluidics platform based assay relative to control
[25] = target: Serine/threonine-protein kinase PAK 2 (Homo sapiens) (UniProt Q13177); assay: Inhibition of PAK2 (unknown origin) at 1 uM by mobility shift microfluidics platform based assay relative to control
[26] = target: Platelet-derived growth factor receptor beta (Homo sapiens) (UniProt P09619); assay: Inhibition of PDGFR-beta (unknown origin) at 1 uM by mobility shift microfluidics platform based assay relative to control
[27] = target: Protein kinase C beta type (Homo sapiens) (UniProt P05771); assay: Inhibition of PKC-beta2 (unknown origin) at 1 uM by mobility shift microfluidics platform based assay relative to control
[28] = target: MAP kinase-activated protein kinase 5 (Homo sapiens) (UniProt Q8IW41); assay: Inhibition of PRAK (unknown origin) at 1 uM by mobility shift microfluidics platform based assay relative to control
[29] = target: Rho-associated protein kinase 1 (Homo sapiens) (UniProt Q13464); assay: Inhibition of ROCK1 (unknown origin) at 1 uM by mobility shift microfluidics platform based assay relative to control
[30] = target: Sphingosine kinase 1 (Homo sapiens) (UniProt Q9NYA1); assay: Inhibition of SPHK1 (unknown origin) at 1 uM by mobility shift microfluidics platform based assay relative to control
[31] = target: SRSF protein kinase 1 (Homo sapiens) (UniProt Q96SB4); assay: Inhibition of SRPK1 (unknown origin) at 1 uM by mobility shift microfluidics platform based assay relative to control
[32] = target: Serine/threonine-protein kinase TAO3 (Homo sapiens) (UniProt Q9H2K8); assay: Inhibition of TAOK3 (unknown origin) at 1 uM by mobility shift microfluidics platform based assay relative to control
[33] = target: Tyrosine-protein kinase Tec (Homo sapiens) (UniProt P42680); assay: Inhibition of TEC (unknown origin) at 1 uM by mobility shift microfluidics platform based assay relative to control
[34] = target: TRAF2 and NCK-interacting protein kinase (Homo sapiens) (UniProt Q9UKE5); assay: Inhibition of TNIK (unknown origin) at 1 uM by mobility shift microfluidics platform based assay relative to control

Maternal embryonic leucine zipper kinase (Homo sapiens), sequence (Q14680 whole entry, looked up): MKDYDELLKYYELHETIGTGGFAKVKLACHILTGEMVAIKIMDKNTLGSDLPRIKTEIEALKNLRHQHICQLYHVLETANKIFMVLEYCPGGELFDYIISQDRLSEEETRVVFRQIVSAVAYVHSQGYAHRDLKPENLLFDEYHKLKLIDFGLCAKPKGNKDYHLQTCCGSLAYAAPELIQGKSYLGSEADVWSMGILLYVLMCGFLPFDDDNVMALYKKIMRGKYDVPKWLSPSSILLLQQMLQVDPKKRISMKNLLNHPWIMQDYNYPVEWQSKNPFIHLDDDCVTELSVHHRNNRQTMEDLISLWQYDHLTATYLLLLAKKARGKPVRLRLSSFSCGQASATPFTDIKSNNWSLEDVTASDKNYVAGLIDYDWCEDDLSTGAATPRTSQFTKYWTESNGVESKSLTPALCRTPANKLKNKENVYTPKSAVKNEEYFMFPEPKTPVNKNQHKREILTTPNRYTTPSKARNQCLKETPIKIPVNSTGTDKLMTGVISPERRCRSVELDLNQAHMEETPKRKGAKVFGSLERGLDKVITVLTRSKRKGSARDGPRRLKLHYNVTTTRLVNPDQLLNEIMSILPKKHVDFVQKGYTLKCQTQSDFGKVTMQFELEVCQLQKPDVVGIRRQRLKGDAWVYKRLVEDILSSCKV
RAC-gamma serine/threonine-protein kinase (Homo sapiens), sequence (Q9Y243 whole entry): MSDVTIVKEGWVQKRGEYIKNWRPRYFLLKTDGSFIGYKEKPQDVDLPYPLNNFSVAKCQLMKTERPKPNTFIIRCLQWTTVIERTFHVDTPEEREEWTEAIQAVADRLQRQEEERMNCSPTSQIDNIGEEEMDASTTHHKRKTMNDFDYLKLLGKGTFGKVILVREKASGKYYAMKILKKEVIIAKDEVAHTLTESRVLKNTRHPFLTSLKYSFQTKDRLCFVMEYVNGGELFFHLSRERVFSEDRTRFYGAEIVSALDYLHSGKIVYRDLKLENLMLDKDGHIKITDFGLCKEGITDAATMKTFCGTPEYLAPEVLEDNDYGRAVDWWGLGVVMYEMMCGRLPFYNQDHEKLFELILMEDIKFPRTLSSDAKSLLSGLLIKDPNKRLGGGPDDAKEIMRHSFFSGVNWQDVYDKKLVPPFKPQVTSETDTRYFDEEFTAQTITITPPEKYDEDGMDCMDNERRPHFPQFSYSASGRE
Dual specificity protein kinase CLK1 (Homo sapiens), sequence (P49759 whole entry, looked up): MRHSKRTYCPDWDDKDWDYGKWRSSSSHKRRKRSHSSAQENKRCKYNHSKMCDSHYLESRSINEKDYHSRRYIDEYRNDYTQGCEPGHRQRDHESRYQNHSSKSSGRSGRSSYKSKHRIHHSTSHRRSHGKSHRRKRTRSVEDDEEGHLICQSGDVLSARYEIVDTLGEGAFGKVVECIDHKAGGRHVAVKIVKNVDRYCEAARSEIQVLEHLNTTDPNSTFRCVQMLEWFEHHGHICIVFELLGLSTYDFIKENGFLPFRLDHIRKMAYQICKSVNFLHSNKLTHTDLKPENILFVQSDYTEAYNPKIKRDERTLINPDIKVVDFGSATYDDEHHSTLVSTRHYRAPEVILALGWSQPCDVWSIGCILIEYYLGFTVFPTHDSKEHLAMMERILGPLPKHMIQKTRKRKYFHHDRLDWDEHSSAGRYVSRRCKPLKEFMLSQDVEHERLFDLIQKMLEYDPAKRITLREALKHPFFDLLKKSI
Serine/threonine-protein kinase TAO3 (Homo sapiens), sequence (Q9H2K8 whole entry): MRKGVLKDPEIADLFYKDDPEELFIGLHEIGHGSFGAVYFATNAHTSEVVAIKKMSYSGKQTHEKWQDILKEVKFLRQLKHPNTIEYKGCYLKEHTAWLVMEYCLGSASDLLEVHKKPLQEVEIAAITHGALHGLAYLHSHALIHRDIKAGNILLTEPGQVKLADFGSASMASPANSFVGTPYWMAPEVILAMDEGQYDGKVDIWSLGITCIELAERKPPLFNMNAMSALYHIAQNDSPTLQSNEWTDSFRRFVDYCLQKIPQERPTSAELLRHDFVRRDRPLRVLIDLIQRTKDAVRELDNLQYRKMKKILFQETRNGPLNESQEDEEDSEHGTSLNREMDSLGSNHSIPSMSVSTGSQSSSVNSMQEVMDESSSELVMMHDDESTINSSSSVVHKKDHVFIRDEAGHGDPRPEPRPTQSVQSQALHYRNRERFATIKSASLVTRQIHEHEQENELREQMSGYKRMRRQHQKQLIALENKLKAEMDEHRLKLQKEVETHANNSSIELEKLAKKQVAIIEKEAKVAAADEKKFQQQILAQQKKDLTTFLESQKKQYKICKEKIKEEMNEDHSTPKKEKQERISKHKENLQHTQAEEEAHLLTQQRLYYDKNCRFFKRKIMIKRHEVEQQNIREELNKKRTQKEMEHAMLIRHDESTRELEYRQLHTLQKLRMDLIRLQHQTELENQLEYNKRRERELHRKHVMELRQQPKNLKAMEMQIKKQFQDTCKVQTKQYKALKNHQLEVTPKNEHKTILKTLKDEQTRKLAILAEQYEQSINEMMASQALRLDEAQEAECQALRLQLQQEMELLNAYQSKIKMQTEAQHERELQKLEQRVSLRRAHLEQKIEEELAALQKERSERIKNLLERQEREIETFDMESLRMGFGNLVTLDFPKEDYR
Rho-associated protein kinase 1 (Homo sapiens), sequence (Q13464 2-1354 limits assumed): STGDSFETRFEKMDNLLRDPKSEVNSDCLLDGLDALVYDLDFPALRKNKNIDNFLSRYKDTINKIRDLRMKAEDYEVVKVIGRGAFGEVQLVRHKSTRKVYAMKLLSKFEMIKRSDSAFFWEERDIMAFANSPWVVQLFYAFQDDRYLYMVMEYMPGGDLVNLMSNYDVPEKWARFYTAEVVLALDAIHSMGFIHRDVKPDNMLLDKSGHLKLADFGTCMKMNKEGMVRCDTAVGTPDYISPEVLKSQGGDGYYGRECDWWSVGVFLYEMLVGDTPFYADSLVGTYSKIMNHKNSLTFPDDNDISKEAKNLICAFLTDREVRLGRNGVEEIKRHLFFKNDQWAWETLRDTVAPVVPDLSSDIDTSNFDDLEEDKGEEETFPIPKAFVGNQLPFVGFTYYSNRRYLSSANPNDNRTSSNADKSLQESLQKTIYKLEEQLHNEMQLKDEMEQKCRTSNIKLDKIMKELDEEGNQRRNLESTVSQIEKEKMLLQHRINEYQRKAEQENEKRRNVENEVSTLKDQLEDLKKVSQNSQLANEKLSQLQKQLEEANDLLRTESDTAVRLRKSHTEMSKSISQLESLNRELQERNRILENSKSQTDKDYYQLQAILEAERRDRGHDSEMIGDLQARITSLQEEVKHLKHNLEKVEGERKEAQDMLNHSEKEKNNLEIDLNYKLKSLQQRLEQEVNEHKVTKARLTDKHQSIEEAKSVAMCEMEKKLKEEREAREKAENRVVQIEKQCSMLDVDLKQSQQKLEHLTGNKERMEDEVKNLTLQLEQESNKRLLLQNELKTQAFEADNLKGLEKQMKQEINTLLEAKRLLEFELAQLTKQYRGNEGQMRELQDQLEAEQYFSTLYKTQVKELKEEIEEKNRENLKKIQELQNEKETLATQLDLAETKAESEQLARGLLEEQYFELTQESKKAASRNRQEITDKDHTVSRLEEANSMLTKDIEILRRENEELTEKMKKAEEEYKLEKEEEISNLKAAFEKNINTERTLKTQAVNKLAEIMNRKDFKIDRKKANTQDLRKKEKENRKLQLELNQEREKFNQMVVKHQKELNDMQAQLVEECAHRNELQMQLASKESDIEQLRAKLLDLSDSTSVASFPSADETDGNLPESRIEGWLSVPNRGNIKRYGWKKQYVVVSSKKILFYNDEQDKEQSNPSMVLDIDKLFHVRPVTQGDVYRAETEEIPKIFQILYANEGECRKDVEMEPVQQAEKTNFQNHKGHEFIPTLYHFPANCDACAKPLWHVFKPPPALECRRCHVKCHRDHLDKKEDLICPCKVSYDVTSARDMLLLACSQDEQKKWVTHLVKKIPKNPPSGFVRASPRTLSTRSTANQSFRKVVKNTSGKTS
MAP kinase-activated protein kinase 2 (Homo sapiens), sequence (P49137 whole entry, looked up): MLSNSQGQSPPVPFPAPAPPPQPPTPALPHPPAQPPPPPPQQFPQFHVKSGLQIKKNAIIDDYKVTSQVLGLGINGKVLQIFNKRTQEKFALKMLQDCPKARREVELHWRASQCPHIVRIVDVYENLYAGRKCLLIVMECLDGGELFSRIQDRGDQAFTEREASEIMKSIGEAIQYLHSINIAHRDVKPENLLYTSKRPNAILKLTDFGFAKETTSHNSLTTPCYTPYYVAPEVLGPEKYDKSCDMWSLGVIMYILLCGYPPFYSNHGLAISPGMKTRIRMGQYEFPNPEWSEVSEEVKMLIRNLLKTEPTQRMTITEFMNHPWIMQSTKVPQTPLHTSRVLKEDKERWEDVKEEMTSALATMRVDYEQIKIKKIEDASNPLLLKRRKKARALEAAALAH
MAP kinase-activated protein kinase 5 (Homo sapiens), sequence (Q8IW41 whole entry): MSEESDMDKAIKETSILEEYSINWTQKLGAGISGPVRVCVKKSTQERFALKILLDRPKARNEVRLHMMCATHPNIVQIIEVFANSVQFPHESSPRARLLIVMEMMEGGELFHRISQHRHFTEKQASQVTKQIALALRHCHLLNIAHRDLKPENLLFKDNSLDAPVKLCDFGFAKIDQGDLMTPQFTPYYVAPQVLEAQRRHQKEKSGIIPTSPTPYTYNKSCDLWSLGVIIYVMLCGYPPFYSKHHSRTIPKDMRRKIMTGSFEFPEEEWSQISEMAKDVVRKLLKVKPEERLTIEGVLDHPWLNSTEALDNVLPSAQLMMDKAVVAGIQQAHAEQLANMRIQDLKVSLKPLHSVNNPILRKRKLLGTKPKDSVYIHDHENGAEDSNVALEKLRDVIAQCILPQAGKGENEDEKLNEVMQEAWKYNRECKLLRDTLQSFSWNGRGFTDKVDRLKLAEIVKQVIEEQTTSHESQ

Q: For `CC(C)n1nc(C#Cc2cccc(NC(=O)c3cccc(C(F)(F)F)c3)c2)c2c(N)ncnc21`, which IC50 [1] is on record?
A: 2 nM

Q: And the inhibition [2]?
A: 0%

Q: And the inhibition [3]?
A: 2%

Q: And the inhibition [4]?
A: 12%

Q: What about the inhibition [5] of the same molecule?
A: 95%

Q: And the inhibition [6]?
A: 2%

Q: What about the inhibition [7] of the same molecule?
A: 118%

Q: What about the inhibition [8] of the same molecule?
A: -2%

Q: And the inhibition [9]?
A: 0%

Q: What about the inhibition [10] of the same molecule?
A: 11%

Q: And the inhibition [11]?
A: 97%

Q: And the inhibition [12]?
A: 98%

Q: What about the inhibition [13] of the same molecule?
A: 21%

Q: What about the inhibition [14] of the same molecule?
A: 99%

Q: And the inhibition [15]?
A: 99%

Q: What about the inhibition [16] of the same molecule?
A: 1%

Q: And the inhibition [17]?
A: 5%

Q: What about the inhibition [18] of the same molecule?
A: 1%

Q: What about the inhibition [19] of the same molecule?
A: 4%

Q: And the inhibition [20]?
A: -1%

Q: What about the inhibition [21] of the same molecule?
A: -1%

Q: What about the inhibition [22] of the same molecule?
A: -3%

Q: And the inhibition [23]?
A: 2%

Q: What about the inhibition [24] of the same molecule?
A: 5%

Q: What about the inhibition [25] of the same molecule?
A: 1%

Q: What about the inhibition [26] of the same molecule?
A: 100%

Q: What about the inhibition [27] of the same molecule?
A: 2%

Q: What about the inhibition [28] of the same molecule?
A: -1%

Q: What about the inhibition [29] of the same molecule?
A: 5%

Q: And the inhibition [30]?
A: 2%

Q: And the inhibition [31]?
A: 1%

Q: And the inhibition [32]?
A: 37%

Q: What about the inhibition [33] of the same molecule?
A: 40%

Q: And the inhibition [34]?
A: 71%

Q: How did the IC50 [1] turn out when `CC(C)n1nc(C#Cc2cccc3cc(-c4cccc(C(F)(F)F)c4)ncc23)c2c(N)ncnc21` was run?
A: 14 nM

Q: And the inhibition [2]?
A: -10%

Q: And the inhibition [3]?
A: 3%

Q: And the inhibition [4]?
A: 2%

Q: What about the inhibition [5] of the same molecule?
A: 57%

Q: And the inhibition [6]?
A: -1%

Q: What about the inhibition [7] of the same molecule?
A: 101%

Q: What about the inhibition [8] of the same molecule?
A: -2%

Q: And the inhibition [9]?
A: 1%

Q: What about the inhibition [10] of the same molecule?
A: -3%

Q: What about the inhibition [11] of the same molecule?
A: 46%

Q: What about the inhibition [12] of the same molecule?
A: 86%

Q: And the inhibition [13]?
A: 0%

Q: What about the inhibition [14] of the same molecule?
A: 96%

Q: And the inhibition [15]?
A: 97%

Q: What about the inhibition [16] of the same molecule?
A: 5%

Q: What about the inhibition [17] of the same molecule?
A: 6%

Q: And the inhibition [18]?
A: 2%

Q: And the inhibition [19]?
A: 8%

Q: What about the inhibition [20] of the same molecule?
A: 5%

Q: What about the inhibition [21] of the same molecule?
A: 1%

Q: What about the inhibition [22] of the same molecule?
A: 2%

Q: What about the inhibition [23] of the same molecule?
A: 2%

Q: And the inhibition [24]?
A: 3%

Q: What about the inhibition [25] of the same molecule?
A: -2%

Q: What about the inhibition [26] of the same molecule?
A: 71%

Q: What about the inhibition [27] of the same molecule?
A: 5%

Q: What about the inhibition [28] of the same molecule?
A: 7%

Q: What about the inhibition [29] of the same molecule?
A: 1%

Q: And the inhibition [30]?
A: 4%

Q: What about the inhibition [31] of the same molecule?
A: 2%

Q: And the inhibition [32]?
A: 33%

Q: What about the inhibition [33] of the same molecule?
A: 2%

Q: And the inhibition [34]?
A: 4%
